Measured values as given in PubChem BioAssay AID248 (DTP/NCI, 2004).
“And” between values parts separate entries of the source, which are not always exact repeats. Identical values can stand only once. Toxic doses and inconclusive results are not listed. No stated cut-off is given here; in the data, active means T/C of 150% or more; inactive means T/C below 125%.

Tested on: L1210 leukemia ip in BDF1 mice, survival T/C
Experiment: NCI In Vivo Anticancer Drug Screen. Data for tumor model L1210 Leukemia (intraperitoneal) in B6D2F1 (BDF1) mice
Conditions: endpoint: mean survival time, higher = longer survival
How it was run: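 Transplanted-tumor mice were given test agent; controls received vehicle only. Survival readings from the two groups were divided (treated over control).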

[1] = dose: 100.0 mg/kg/injection, schedule: Q01DX001 (ip), vehicle: saline
[2] = dose: 200.0 mg/kg/injection, schedule: Q01DX001 (ip), vehicle: saline
[3] = dose: 400.0 mg/kg/injection, schedule: Q01DX001 (ip), vehicle: saline
[4] = dose: 100.0 mg/kg/injection, schedule: Q04DX002 (ip), vehicle: Klucel (hydroxypropylcellulose) (HPC)
[5] = dose: 200.0 mg/kg/injection, schedule: Q04DX002 (ip), vehicle: Klucel (hydroxypropylcellulose) (HPC)
[6] = dose: 100.0 mg/kg/injection, schedule: Q04DX003 (ip), vehicle: saline with Tween-80
[7] = dose: 100.0 mg/kg/injection, schedule: Q01DX001 (ip), vehicle: carboxymethylcellulose (CMC)
[8] = dose: 200.0 mg/kg/injection, schedule: Q01DX001 (ip), vehicle: carboxymethylcellulose (CMC)
[9] = dose: 400.0 mg/kg/injection, schedule: Q01DX001 (ip), vehicle: carboxymethylcellulose (CMC)
[10] = dose: 100.0 mg/kg/injection, schedule: Q01DX009 (ip), vehicle: Klucel (hydroxypropylcellulose) (HPC)
[11] = dose: 100.0 mg/kg/injection, schedule: Q04DX003 (ip), vehicle: Klucel (hydroxypropylcellulose) (HPC)
[12] = dose: 200.0 mg/kg/injection, schedule: Q01DX009 (ip), vehicle: Klucel (hydroxypropylcellulose) (HPC)
[13] = dose: 200.0 mg/kg/injection, schedule: Q04DX003 (ip), vehicle: Klucel (hydroxypropylcellulose) (HPC)
[14] = dose: 400.0 mg/kg/injection, schedule: Q01DX009 (ip), vehicle: Klucel (hydroxypropylcellulose) (HPC)
[15] = dose: 400.0 mg/kg/injection, schedule: Q04DX003 (ip), vehicle: Klucel (hydroxypropylcellulose) (HPC)

Measured: T/C

O=C1C=C2CCN(C(=O)c3ccccc3)CC2O1 (configuration not stated)
inactive: [1] 100 % of control | [2] 105 % of control | [3] 100 % of control

CSCC(C)(C)NC(=O)NCCCl
inactive: [4] 89 % of control | [5] 89 % of control

[Cu+2].[NH-]C(CS)C(=O)O.[NH-]C(CS)C(=O)O (configuration not stated)
inactive: dose: 3.13 mg/kg/injection, schedule: Q04DX002 (ip), vehicle: saline with Tween-80 97 % of control | dose: 6.25 mg/kg/injection, schedule: Q04DX002 (ip), vehicle: saline with Tween-80 93 % of control and 90 % of control | dose: 25.0 mg/kg/injection, schedule: Q04DX002 (ip), vehicle: saline with Tween-80 90 % of control | dose: 125.0 mg/kg/injection, schedule: Q04DX002 (ip), vehicle: saline with Tween-80 93 % of control

Clc1nc(Cl)n2c(Cl)cncc12
inactive: dose: 25.0 mg/kg/injection, schedule: Q04DX003 (ip), vehicle: saline with Tween-80 96 % of control | dose: 50.0 mg/kg/injection, schedule: Q04DX003 (ip), vehicle: saline with Tween-80 103 % of control | [6] 96 % of control

O=C(/C=C(/C(=O)c1ccccc1)N1CC1)c1ccccc1
inactive: dose: 50.0 mg/kg/injection, schedule: Q01DX001 (ip), vehicle: carboxymethylcellulose (CMC) 113 % of control | [7] 105 % of control | [8] 97 % of control | [9] 103 % of control

COC1CC(N=[N+]=[N-])C(O)C(C)O1 (configuration not stated)
inactive: dose: 100.0 mg/kg/injection, schedule: Q01DX009 (ip), vehicle: saline with Tween-80 109 % of control and 105 % of control | [6] 97 % of control and 96 % of control | dose: 200.0 mg/kg/injection, schedule: Q01DX009 (ip), vehicle: saline with Tween-80 107 % of control and 89 % of control | dose: 200.0 mg/kg/injection, schedule: Q04DX003 (ip), vehicle: saline with Tween-80 103 % of control and 97 % of control | dose: 400.0 mg/kg/injection, schedule: Q01DX009 (ip), vehicle: saline with Tween-80 104 % of control and 100 % of control | dose: 400.0 mg/kg/injection, schedule: Q04DX003 (ip), vehicle: saline with Tween-80 108 % of control and 103 % of control

COc1cc2c(cc1OC)[C@@H]1Cc3ccc(OC)c(OC)c3CN1CC2
inactive: [7] 102 % of control | [8] 110 % of control | [9] 94 % of control

CC(N)C(=O)Nc1ccccc1 (configuration not stated)
inactive: dose: 100.0 mg/kg/injection, schedule: Q01DX009 (ip), vehicle: water 94 % of control | dose: 100.0 mg/kg/injection, schedule: Q04DX003 (ip), vehicle: water 97 % of control | dose: 200.0 mg/kg/injection, schedule: Q01DX009 (ip), vehicle: water 100 % of control | dose: 200.0 mg/kg/injection, schedule: Q04DX003 (ip), vehicle: water 103 % of control | dose: 400.0 mg/kg/injection, schedule: Q01DX009 (ip), vehicle: water 100 % of control | dose: 400.0 mg/kg/injection, schedule: Q04DX003 (ip), vehicle: water 97 % of control

CN(C)c1ccc(/C=C2\C=Cc3ccccc32)c(F)c1
inactive: [10] 98 % of control | [11] 96 % of control | [12] 101 % of control | [13] 93 % of control | [14] 92 % of control | [15] 96 % of control

ClC(Cl)(Cl)C(Cl)(Cl)c1ccc(C(Cl)(Cl)C(Cl)(Cl)Cl)cc1
inactive: dose: 100.0 mg/kg/injection, schedule: Q01DX009 (ip), vehicle: saline sonified 95 % of control | [11] 89 % of control | dose: 200.0 mg/kg/injection, schedule: Q01DX009 (ip), vehicle: saline sonified 94 % of control | [13] 94 % of control | dose: 400.0 mg/kg/injection, schedule: Q01DX009 (ip), vehicle: saline sonified 94 % of control | [15] 96 % of control

O=C(O)C1CCCCC1C(=O)NCc1ccccc1Cl (configuration not stated)
inactive: [4] 100 % of control | [5] 100 % of control | dose: 400.0 mg/kg/injection, schedule: Q04DX002 (ip), vehicle: Klucel (hydroxypropylcellulose) (HPC) 96 % of control

COc1ccc(Cl)cc1NC(=O)Nc1ccc(Cl)c(Cl)c1
inactive: [10] 95 % of control | [11] 112 % of control | [12] 92 % of control | [13] 89 % of control | [14] 102 % of control | [15] 109 % of control

COc1cc(C=O)ccc1OC(=O)Nc1cccc(C(C)=O)c1
inactive: [10] 96 % of control | [12] 92 % of control

CC(C)(O)S(=O)(=O)O
inactive: dose: 100.0 mg/kg/injection, schedule: Q04DX002 (ip), vehicle: saline with Tween-80 95 % of control | dose: 200.0 mg/kg/injection, schedule: Q04DX002 (ip), vehicle: saline with Tween-80 101 % of control | dose: 400.0 mg/kg/injection, schedule: Q04DX002 (ip), vehicle: saline with Tween-80 98 % of control

COc1ccc(-n2c(=O)c(N=Nc3ccccc3C)c(O)n(-c3ccc(Br)cc3)c2=S)cc1
inactive: dose: 37.5 mg/kg/injection, schedule: Q01DX001 (ip), vehicle: Klucel (hydroxypropylcellulose) (HPC) 94 % of control | dose: 75.0 mg/kg/injection, schedule: Q01DX001 (ip), vehicle: Klucel (hydroxypropylcellulose) (HPC) 92 % of control | dose: 150.0 mg/kg/injection, schedule: Q01DX001 (ip), vehicle: Klucel (hydroxypropylcellulose) (HPC) 105 % of control

FC(F)C(F)(F)C(F)(F)C(F)(F)C(F)(F)C(F)(F)C(F)(F)F
inactive: [1] 97 % of control | [2] 100 % of control | [3] 95 % of control

NC1=NC(c2ccc(Cl)cc2)N(c2ccc(S(=O)(=O)Nc3ncccn3)cc2)C(N)=N1 (configuration not stated)
inactive: dose: 100.0 mg/kg/injection, schedule: Q04DX003 (ip), vehicle: saline 103 % of control | dose: 200.0 mg/kg/injection, schedule: Q04DX003 (ip), vehicle: saline 96 % of control | dose: 400.0 mg/kg/injection, schedule: Q04DX003 (ip), vehicle: saline 100 % of control

O=C(C[n+]1cccc2ccccc21)c1ccc(-c2ccccc2)cc1
inactive: dose: 200.0 mg/kg/injection, schedule: Q01DX001 (ip), vehicle: Klucel (hydroxypropylcellulose) (HPC) 96 % of control
